Biological target: T1, Recombinant human BACE-1 (Homo sapiens, UniProt P56817)
T1 construct: purchased R&D Systems
Test: Assay of β-secretase-inhibiting activity;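 note: substrate is a peptide carrying biotin and europium cryptate, after the enzyme reaction, Streptavidin-XL665 is added and incubated 1 h at 30 °C before fluorescence reading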
Assay type: biochemical
Conditions: Recombinant human BACE-1 7.4 nM, substrate peptide 18 nM, pH 5.0, 30° C., 3 hours; Table 139; read-out: IC50

T1 sequence (P56817 46-501): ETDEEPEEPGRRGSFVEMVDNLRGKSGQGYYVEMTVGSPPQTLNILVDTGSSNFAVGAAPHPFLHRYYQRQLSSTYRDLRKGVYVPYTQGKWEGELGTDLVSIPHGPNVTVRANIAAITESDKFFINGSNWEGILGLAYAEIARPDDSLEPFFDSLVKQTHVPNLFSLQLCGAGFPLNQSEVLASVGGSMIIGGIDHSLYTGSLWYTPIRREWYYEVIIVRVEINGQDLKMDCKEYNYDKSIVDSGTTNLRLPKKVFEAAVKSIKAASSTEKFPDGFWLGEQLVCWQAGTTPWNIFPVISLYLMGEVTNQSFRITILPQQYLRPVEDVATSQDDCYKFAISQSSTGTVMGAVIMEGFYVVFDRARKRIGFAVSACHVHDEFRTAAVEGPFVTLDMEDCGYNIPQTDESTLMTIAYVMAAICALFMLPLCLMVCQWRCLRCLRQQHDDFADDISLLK

Row | SMILES | IC50 [nM]
1 | C=C(C)COc1cnc(C(=O)Nc2cccc([C@]3(C)CCSC(N)=N3)c2)cn1 [Compound 109] | 100
2 | CC#CC(=O)Nc1cccc([C@]2(C)CCSC(N)=N2)c1 [Compound 65] | 720
3 | C=Cc1cnc(C(=O)Nc2cccc([C@]3(C)CCSC(N)=N3)c2)cn1 [Compound 66] | 150
4 | Cc1cc(C(=O)Nc2cccc([C@]3(C)CCSC(N)=N3)c2)c(C)s1 [Compound 11] | 170
5 | COCCOc1cnc(C(=O)Nc2cccc([C@]3(C)CCSC(N)=N3)c2)cn1 [Compound 70] | 90
6 | C[C@@]1(c2cc(NC(=O)c3ccc(Br)s3)ccc2F)CCSC(N)=N1 [Compound 41] | 150

Same assay, conditions: Recombinant human BACE-1 7.4 nM, substrate peptide 18 nM, pH 5.0, 30° C., 3 hours; Table 140; read-out: IC50

Row | SMILES | IC50 [nM]
7 | Cc1cnc(C(=O)Nc2cc([C@]3(C)CCSC(N)=N3)ccn2)cn1 [Compound 593] | 280
8 | Cc1nnsc1C(=O)Nc1ccc(F)c([C@]2(C)CCSC(N)=N2)c1 [Compound 481] | 50
9 | C[C@@]1(c2cc(NC(=O)c3cnc(Cl)cn3)ccc2Br)CCSC(N)=N1 [Compound 517] | 130
10 | Cc1cc(C(=O)Nc2ccc(F)c([C@]3(C)CCSC(N)=N3)c2)nn1C [Compound 488] | 260
11 | C[C@@]1(c2cncc(NC(=O)c3ccc(Br)s3)c2)CCSC(N)=N1 [Compound 514] | 240
12 | C[C@@]1(c2cncc(NC(=O)c3cnc(Cl)cn3)c2)CCSC(N)=N1 [Compound 597] | 70
13 | Cc1cnn(-c2cnc(C(=O)Nc3ccc(F)c([C@]4(C)CCSC(N)=N4)c3)cn2)c1 [Compound 577] | 30
14 | C[C@@]1(c2cc(NC(=O)c3nc4cnccc4[nH]3)ccc2F)CCSC(N)=N1 [Compound 484] | 290
15 | C[C@@]1(c2cc(NC(=O)c3ccc(OCC#CCN)cn3)ccc2F)CCSC(N)=N1 [Compound 566] | 180
16 | CC1(C)C[C@@](C)(c2cc(NC(=O)c3coc(Cl)n3)ccc2F)N=C(N)S1 [Compound 645] | 200
17 | C[C@@]1(c2cc(NC(=O)c3cc4nccnc4s3)ccc2F)CCSC(N)=N1 [Compound 521] | 180
18 | Cc1nc(C(=O)Nc2cncc([C@]3(C)CCSC(N)=N3)c2)c(C)o1 [Compound 461] | 30

Same assay, conditions: Recombinant human BACE-1 7.4 nM, substrate peptide 18 nM, pH 5.0, 30° C., 3 hours; Table 141; read-out: IC50

Row | SMILES | IC50 [nM]
19 | Cc1cnc(C(=O)Nc2ccc(F)c([C@@]3(C)N=C(N)SCC3(F)F)c2)cn1 [Compound 662] | 170
20 | COc1ncc(NC(=O)c2cnc(C)cn2)cc1[C@]1(C)CCSC(N)=N1 [Compound 680] | 50
21 | C[C@@]1(c2cc(NC(=O)c3coc(C(F)(F)F)n3)ccc2F)CCSC(N)=N1 [Compound 669] | 10

Same assay, conditions: Recombinant human BACE-1 7.4 nM, substrate peptide 18 nM, pH 5.0, 30° C., 3 hours; time-resolved fluorescence ratio 665/620; read-out: IC50 values (50% inhibitory concentration against the enzymatic activity)

Row | SMILES | IC50 [nM]
22 | COc1cnc(C(=O)Nc2ccnc([C@]3(C)CC(C)(C)SC(N)=N3)c2)c(C)c1 [Compound 685] | ≤ 1000
23 | Cc1nc(C(=O)Nc2cnc(Cl)c([C@]3(C)CCSC(N)=N3)c2)co1 [Compound 584] | ≤ 1000
24 | C[C@@]1(c2cccc(NC(=O)c3ccc(OCc4ccccc4)cn3)c2)CCSC(N)=N1 [Compound 102] | ≤ 1000
25 | COc1cnc(C(=O)Nc2cccc([C@]3(C)CCSC(N)=N3)c2)cn1 [Compound 29] | ≤ 1000
26 | C#CCOc1cnc(C(=O)Nc2cncc([C@]3(C)CC(C)(C)SC(N)=N3)c2)cn1 [Compound 561] | ≤ 1000
27 | C#CCOc1cnc(C(=O)Nc2ccnc([C@]3(C)CC(C)(C)SC(N)=N3)c2)cn1 [Compound 657] | ≤ 1000
28 | C[C@@]1(c2cc(NC(=O)C3=NNC(=O)CC3)ccc2F)CCSC(N)=N1 [Compound 472] | ≤ 1000
29 | Cc1ccc(C(=O)Nc2cncc([C@]3(C)CCSC(N)=N3)c2)s1 [Compound 485] | ≤ 1000
30 | C[C@@]1(c2cc(NC(=O)c3cnc4ccccc4n3)ccc2F)CCSC(N)=N1 [Compound 666] | ≤ 1000
31 | COc1cc(C(=O)Nc2ccc(F)c([C@]3(C)CCSC(N)=N3)c2)on1 [Compound 22] | ≤ 1000
32 | COc1cnc(C(=O)Nc2ccnc([C@]3(C)CCSC(N)=N3)c2)cn1 [Compound 548] | ≤ 1000
33 | C[C@@]1(c2cc(NC(=O)c3cc4ccccc4o3)ccc2F)CCSC(N)=N1 [Compound 540] | ≤ 1000
34 | CC#CCOc1cnc(C(=O)Nc2cccc([C@]3(C)CC(C)(C)SC(N)=N3)c2)cn1 [Compound 695] | ≤ 1000
35 | Cc1ccoc1C(=O)Nc1ccc(F)c([C@]2(C)CCSC(N)=N2)c1 [Compound 518] | ≤ 1000
36 | CC1(C)CSC(N)=N[C@]1(C)c1cc(NC(=O)c2ncccc2F)ccc1F [Compound 661] | ≤ 1000
37 | C[C@@]1(c2cncc(NC(=O)c3cnc(OCCF)cn3)c2)CCSC(N)=N1 [Compound 557] | ≤ 1000
38 | C[C@]1(c2cc(NC(=O)c3ncc(Cl)cc3Cl)ccc2F)N=C(N)SCC1=O [Compound 687] | ≤ 1000
39 | CCc1nc(C(=O)Nc2ccc(F)c([C@]3(C)CCSC(N)=N3)c2)co1 [Compound 670] | ≤ 1000
40 | C[C@@]1(c2cc(NC(=O)c3cnc(OCCF)cn3)ccc2F)CCSC(N)=N1 [Compound 132] | ≤ 1000
41 | C[C@@]1(c2cc(NC(=O)c3cccc(F)n3)ccc2F)CCSC(N)=N1 [Compound 587] | ≤ 1000

Row | SMILES | IC50 [nM]
42 | COc1cnc(C(=O)Nc2cncc([C@]3(C)CCSC(N)=N3)c2)c(N)n1 [Compound 555] | ≤ 1000
43 | COc1cnc(C(=O)Nc2ccc(F)c([C@@]3(C)N=C(N)SCC3(F)F)c2)cn1 [Compound 673] | ≤ 1000
44 | C[C@@]1(c2cccc(NC(=O)c3cnc(Cl)cn3)c2)CCSC(N)=N1 [Compound 58] | ≤ 1000
45 | COc1cnc(C(=O)Nc2cncc([C@]3(C)CC(C)(C)SC(N)=N3)c2)cn1 [Compound 560] | ≤ 1000
46 | Cc1ncsc1C(=O)Nc1ccc(F)c([C@]2(C)CCSC(N)=N2)c1 [Compound 506] | ≤ 1000
47 | C[C@@]1(c2cc(NC(=O)c3ccc(Cl)cn3)ccn2)CCSC(N)=N1 [Compound 552] | ≤ 1000
48 | CC1(C)C[C@@](C)(c2cncc(NC(=O)c3cnc(OCCF)cn3)c2)N=C(N)S1 [Compound 568] | ≤ 1000
49 | C[C@@]1(c2cncc(NC(=O)c3ccc(Cl)s3)c2)CCSC(N)=N1 [Compound 504] | ≤ 1000
50 | CC#CCOc1cnc(C(=O)Nc2ccc(C)c(C3(C)CCSC(N)=N3)c2)cn1 (stereo not shown) [Compound 142] | ≤ 1000
51 | C[C@@]1(c2cc(NC(=O)c3cnc(OCC(F)F)cn3)ccc2F)CCSC(N)=N1 [Compound 131] | ≤ 1000
52 | CCc1cc(C(=O)Nc2ccc(F)c([C@]3(C)CCSC(N)=N3)c2)on1 [Compound 495] | ≤ 1000
53 | COCCOc1nccnc1C(=O)Nc1ccc(F)c([C@]2(C)CCSC(N)=N2)c1 [Compound 45] | ≤ 1000
54 | C[C@@]1(c2cc(NC(=O)c3cc4cc(C(F)(F)F)ccc4s3)ccc2F)CCSC(N)=N1 [Compound 546] | ≤ 1000
55 | CSc1ccc(NC(=O)c2cnc(C)cn2)cc1[C@]1(C)CCSC(N)=N1 [Compound 21] | ≤ 1000
56 | C[C@@]1(c2cc(NC(=O)c3ccc(O)cn3)ccc2F)CCSC(N)=N1 [Compound 119] | ≤ 1000
57 | C[C@@]1(c2cc(NC(=O)c3cc4cccnc4s3)ccc2F)CCSC(N)=N1 [Compound 539] | ≤ 1000
58 | CCOc1cnc(C(=O)Nc2ccc(F)c([C@]3(C)CCSC(N)=N3)c2)c(OCC)c1 [Compound 528] | ≤ 1000
59 | C[C@@]1(c2cc(NC(=O)c3cnc(-c4ccc[nH]4)cn3)ccc2F)CCSC(N)=N1 [Compound 509] | ≤ 1000
60 | C[C@@]1(c2cc(NC(=O)c3cnc(Cl)cn3)ccc2F)CCSC(N)=N1 [Compound 78] | ≤ 1000
61 | C#CCOc1cnc(C(=O)Nc2cccc([C@]3(C)CCSC(N)=N3)c2)cn1 [Compound 103] | ≤ 1000

— patent US20100075957A1, “AMINODIHYDROTHIAZINE DERIVATIVES SUBSTITUTED WITH A CYCLIC GROUP” (SHIONOGI & CO., LTD., priority 2007, published 2010)
